The values that follow come from PMC5567267, “Discovery of a potent protein kinase D inhibitor: insights in the binding mode of pyrazolo[3,4-d]pyrimidine analogues” (MedChemComm, 2017).

SMILES strings stand for the structures. Where two headings read alike, the source gives them in different places.

One may read the inhibition as the relative decrease from the control value, in per cent. As a reminder, the IC50 is the concentration needed to halve the response being measured.

The target of assay [1] is T1, PKD2 (Homo sapiens, UniProt Q9BZL6).
T1 construct: made in house; host or cells: HEK293T cells, transient transfection with pDEST27-PRKD2, stimulated with 500 nM PDB before lysis
T1 sequence (Q9BZL6 1-878): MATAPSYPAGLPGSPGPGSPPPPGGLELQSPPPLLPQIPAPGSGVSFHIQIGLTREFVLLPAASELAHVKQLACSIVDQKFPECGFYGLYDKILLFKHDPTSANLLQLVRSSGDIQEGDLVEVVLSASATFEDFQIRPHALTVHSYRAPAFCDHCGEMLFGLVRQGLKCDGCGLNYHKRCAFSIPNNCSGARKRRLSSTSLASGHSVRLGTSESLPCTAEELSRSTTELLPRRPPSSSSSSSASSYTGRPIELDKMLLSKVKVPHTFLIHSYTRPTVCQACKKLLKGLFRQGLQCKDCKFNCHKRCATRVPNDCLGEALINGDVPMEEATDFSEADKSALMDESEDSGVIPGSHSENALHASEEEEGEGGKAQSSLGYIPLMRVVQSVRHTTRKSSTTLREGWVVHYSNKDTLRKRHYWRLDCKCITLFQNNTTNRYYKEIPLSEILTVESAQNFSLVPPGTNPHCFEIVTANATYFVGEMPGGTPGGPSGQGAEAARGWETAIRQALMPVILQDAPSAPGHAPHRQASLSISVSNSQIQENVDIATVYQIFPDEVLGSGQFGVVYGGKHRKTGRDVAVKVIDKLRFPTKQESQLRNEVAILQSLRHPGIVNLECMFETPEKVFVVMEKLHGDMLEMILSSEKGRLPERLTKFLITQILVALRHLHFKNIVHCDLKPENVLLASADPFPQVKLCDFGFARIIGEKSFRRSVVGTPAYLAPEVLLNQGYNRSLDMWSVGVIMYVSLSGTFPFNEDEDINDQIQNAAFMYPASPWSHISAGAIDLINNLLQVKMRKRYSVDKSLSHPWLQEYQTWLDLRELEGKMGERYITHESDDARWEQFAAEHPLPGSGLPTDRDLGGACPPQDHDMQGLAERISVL
Briefly: Cellular screening assay using phospho-cortactin (Ser-298) as a readout. The note with it: HEK293T cells co-transfected with FLAG-PRKD2 and myc-CTTN; for cellular activity against PKD2 (in words): pSer-298 cortactin western blot; for inhibition at 40 µM: HEK-293T, 40 μM compound, 30 min pretreatment, 500 nM PDB 15 min, read-out: inhibition of PKD2 mediated cortactin Ser-298 phosphorylation. Type of assay: cell-based. From the text:
Therefore we used a cellular assay in which we were able to specifically follow PKD mediated phosphorylation of cortactin, a known PKD substrate, at Ser-298.[15] […] Cortactin phosphorylation at Ser-298 in our assay was PKD-specific, since co-transfection of PKD and cortactin was necessary to produce an adequate signal (data not shown). We selected four compounds for further validation in a cellular assay against PKD2 (Fig. 5).
Fig. 5 The effect of 1-NM-PP1 analogues on PKD mediated phosphorylation of cortactin at Ser-298. HEK293T cells co-transfected with FLAG-PRKD2 and myc-CTTN were pretreated with the indicated compounds for 30 min prior to stimulation with 500 nM Phorbol 12,13-dibutyrate (PDB) for 15 min. Phosphorylation of cortactin was followed via western blot using a home-made pSer-298 antibody and subsequently reprobed for total cortactin (anti-c-Myc; 9E10) and PKD (anti-FLAG M2). Quantification of pSer-298/c-Myc signals of three independent experiments is shown in the graph below. […]
Cellular screening assay using phospho-cortactin as a readout
HEK293T cells were seeded in a 12-well plate at 150.000 cells/well. The next day, cells were transfected with 0.5µg of pcDNA3-Myc-CTTN and 0.5µg of pdcDNA-FLAG-PRKD2. Forty-eight hours after transfection, cells were incubated with compound at the indicated concentrations for 30 min, followed by stimulation with 500nM phorbol 12,13-dibutyrate (PDB) for 15 min. Subsequently, cells were lysed in 50mM Tris pH 7.4, 15mM EDTA, 150mM NaCl, 0.1% (v/v) NP-40 and 25% (v/v) glycerol. Protein quantitation was determined via a Bradford assay. Equal amounts of lysate (30µg) were loaded on a SDS-polyacrylamide gel and subjected to immunoblotting. Blots were probed with Cortactin pSer-298 antibody (home-made) and anti-tubulin antibody (Sigma, St. Louis, Missouri). Subsequently, blots were stripped and reprobed with anti-Myc 9E10 (Sigma, St.
Louis, Missouri) for cortactin and anti-FLAG M2 (Sigma, St. Louis, Missouri) for PKD2.

For assay [2], the target named is T1, PKD2. The assay can be described thus: PKD2 screening assay (in vitro radiometric kinase assay). Conditions: for remaining activity at 1 µM: 10 min. Type of assay: biochemical. On the procedure:
All 35 described analogues were characterized in vitro via an initial screening at 1 μM against PKD2. […]
scanning of a coomassie stained SDS-polyacrylamide gel.
An in vitro radiometric assay was used to determine the inhibition of PKD in presence of various compounds at a […]
determinations. Reactions were carried out in 40µl of a mixture containing 50mM Tris-HCl pH 7.4, 10mM MgCl2, 50ng of PDB stimulated GST-PKD2, 4µg/ml Syntide-2 (Sigma Aldrich, St. Louis, USA), 25µM ATP and 2µCi [γ-32P]ATP (Perkin-Elmer, Massachusetts, USA). After 10’ the reaction was stopped by spotting 30µl of the reaction on whatmann P81 filter paper. The filter papers were washed 3 times in 0.5% phosphoric acid, followed by one wash in 100% acetone. Subsequently the papers were air-dried and counted using the Tri-Carb 2810 TR scintillation counter (Perkin-Elmer). Percentage of PKD2 inhibition was determined relative to a condition where no inhibitor was added (0,1% dimethylsulfoxide (DMSO)). Graphs were plotted and IC50 values were determined using the GraphPad software package (Prism). […]

Assay [3] has as its system PKD. More on the design: method as in Wang group. The note with it: previously reported value; different assay setup and enzyme preparation; ref Wang group; cited from earlier work.
The mark [4] stands for this setting: ESI table, initial screening of all analogues at 1µM, read-out: % PKD2 activity remaining (1µM) (average ±SD).
[5] abbreviates: compound at 1 μM, PDB stimulated GST-PKD2, Syntide-2, 25µM ATP, relative to no inhibitor (DMSO), read-out: % PKD 2 activity remaining (1 μM) (Average ± SD).
Where [6] appears, read: PDB stimulated GST-PKD2, Syntide-2, 25µM ATP, radiometric.

With `CC(C)(C)n1nc(Cc2cccc3ccccc23)c2c(N)ncnc21` [Compound 1, 1-tert-butyl-3-(1-naphthylmethyl)-1H-pyrazolo[3,4-d]pyrimidin-4-amine, reference compound], the “cellular activity against PKD2 (in words)” value (“cellular activity” for short) in assay [1] is “dose-dependent inhibition”. Besides, the inhibition at 40 µM in assay [1] stood at 50%. Moreover, the remaining activity at 1 µM in assay [2] (setting [4]) and in assay [2] (setting [5]) was 23 ± 1.7% each time. The IC50 in assay [2] (setting [6]) is 398 nM; in assay [3] it was 133 nM.

As for `CC(C)(C)n1nc(-c2cc3ccccc3s2)c2c(N)ncnc21` [Compound 6l], the “cellular activity” value in assay [1] is recorded as “did not show cellular activity”. The remaining activity at 1 µM in assay [2] (setting [4]) and in assay [2] (setting [5]) was 53 ± 7.1% throughout. Further, in assay [2] (setting [6]), the IC50 was determined as 2210 nM.

As for `CCCCNc1nc(N)c2c(-c3ccc4ccccc4c3)nn(C(C)(C)C)c2n1` [Compound 13g, N6-butyl-1-tert-butyl-3-(2-naphthyl)-1H-pyrazolo[3,4-d]pyrimidine-4,6-diamine], the remaining activity at 1 µM in assay [2] (setting [4]) was determined as 76 ± 2.7%.

Regarding `CCCCNc1nc(N)c2c(-c3cccc4ccccc34)nn(C(C)(C)C)c2n1` [Compound 13h, N6-butyl-1-tert-butyl-3-(1-naphthyl)-1H-pyrazolo[3,4-d]pyrimidine-4,6-diamine], the “cellular activity” value in assay [1] is listed as “negligible cellular activity”. The remaining activity at 1 µM in assay [2] (setting [4]) and in assay [2] (setting [5]) was 89 ± 6.2% in each case. This compound returned a half-inhibitory concentration (IC50) in assay [2] (setting [6]) of 8170 nM.

Consider `CC(C)(C)n1nc(-c2c[nH]c3ccccc23)c2c(N)ncnc21` [Compound 18, 1-tert-butyl-3-(1H-indol-3-yl)-1H-pyrazolo[3,4-d]pyrimidin-4-amine], for which the “cellular activity” value in assay [1] was “dose-dependent inhibition”. Besides, the inhibition at 40 µM in assay [1] turned out to be 85%. The remaining activity at 1 µM in assay [2] (setting [4]) and in assay [2] (setting [5]) was 8 ± 0.8% each time. In addition, the IC50 is 33 nM in assay [2] (setting [6]) and roughly 33 nM in assay [2] (in vitro potency as stated in the conclusions). Further, the “fold increase in potency compared to 1-NM-PP1” value in assay [2] (PKD2 IC50 relative to 1-NM-PP1) is 10 fold.
